One assay concerns the target T1, Toll-like receptor 7 (Homo sapiens, UniProt Q9NYK1).
T1 sequence (Q9NYK1 whole entry): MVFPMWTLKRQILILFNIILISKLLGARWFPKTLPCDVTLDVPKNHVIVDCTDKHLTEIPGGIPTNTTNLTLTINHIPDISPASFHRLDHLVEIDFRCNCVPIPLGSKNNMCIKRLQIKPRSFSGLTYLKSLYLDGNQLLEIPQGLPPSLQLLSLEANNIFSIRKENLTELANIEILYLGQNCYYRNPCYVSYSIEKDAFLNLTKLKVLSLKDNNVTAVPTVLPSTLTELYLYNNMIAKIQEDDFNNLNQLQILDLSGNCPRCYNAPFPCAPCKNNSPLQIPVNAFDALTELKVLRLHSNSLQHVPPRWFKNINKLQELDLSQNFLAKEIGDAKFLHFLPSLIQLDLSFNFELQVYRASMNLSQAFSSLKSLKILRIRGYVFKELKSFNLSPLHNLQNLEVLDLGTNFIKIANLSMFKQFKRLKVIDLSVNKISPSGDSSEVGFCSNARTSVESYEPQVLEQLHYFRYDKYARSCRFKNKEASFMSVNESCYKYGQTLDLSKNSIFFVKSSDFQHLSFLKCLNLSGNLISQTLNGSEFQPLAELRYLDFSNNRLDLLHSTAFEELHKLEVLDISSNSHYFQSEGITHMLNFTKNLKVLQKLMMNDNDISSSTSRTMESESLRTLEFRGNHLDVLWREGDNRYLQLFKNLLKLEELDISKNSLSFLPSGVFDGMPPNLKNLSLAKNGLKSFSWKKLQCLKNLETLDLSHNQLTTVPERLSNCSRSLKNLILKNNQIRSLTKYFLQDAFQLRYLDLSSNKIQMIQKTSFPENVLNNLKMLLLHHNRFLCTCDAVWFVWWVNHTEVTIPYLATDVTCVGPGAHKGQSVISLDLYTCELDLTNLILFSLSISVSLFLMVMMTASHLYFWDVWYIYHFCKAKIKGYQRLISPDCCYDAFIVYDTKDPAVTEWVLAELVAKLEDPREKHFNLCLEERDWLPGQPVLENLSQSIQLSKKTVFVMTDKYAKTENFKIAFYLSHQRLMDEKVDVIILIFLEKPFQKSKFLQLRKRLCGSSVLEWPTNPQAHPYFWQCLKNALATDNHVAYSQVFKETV
Kind of assay: Antagonist activity at TLR7 in human Whole blood cell assessed as reduction in IFN-alpha level measured after 30 mins. Format: tissue-based.

The target in a further assay is T2, Toll-like receptor 9 (Homo sapiens, UniProt Q9NR96).
T2 sequence (Q9NR96 whole entry): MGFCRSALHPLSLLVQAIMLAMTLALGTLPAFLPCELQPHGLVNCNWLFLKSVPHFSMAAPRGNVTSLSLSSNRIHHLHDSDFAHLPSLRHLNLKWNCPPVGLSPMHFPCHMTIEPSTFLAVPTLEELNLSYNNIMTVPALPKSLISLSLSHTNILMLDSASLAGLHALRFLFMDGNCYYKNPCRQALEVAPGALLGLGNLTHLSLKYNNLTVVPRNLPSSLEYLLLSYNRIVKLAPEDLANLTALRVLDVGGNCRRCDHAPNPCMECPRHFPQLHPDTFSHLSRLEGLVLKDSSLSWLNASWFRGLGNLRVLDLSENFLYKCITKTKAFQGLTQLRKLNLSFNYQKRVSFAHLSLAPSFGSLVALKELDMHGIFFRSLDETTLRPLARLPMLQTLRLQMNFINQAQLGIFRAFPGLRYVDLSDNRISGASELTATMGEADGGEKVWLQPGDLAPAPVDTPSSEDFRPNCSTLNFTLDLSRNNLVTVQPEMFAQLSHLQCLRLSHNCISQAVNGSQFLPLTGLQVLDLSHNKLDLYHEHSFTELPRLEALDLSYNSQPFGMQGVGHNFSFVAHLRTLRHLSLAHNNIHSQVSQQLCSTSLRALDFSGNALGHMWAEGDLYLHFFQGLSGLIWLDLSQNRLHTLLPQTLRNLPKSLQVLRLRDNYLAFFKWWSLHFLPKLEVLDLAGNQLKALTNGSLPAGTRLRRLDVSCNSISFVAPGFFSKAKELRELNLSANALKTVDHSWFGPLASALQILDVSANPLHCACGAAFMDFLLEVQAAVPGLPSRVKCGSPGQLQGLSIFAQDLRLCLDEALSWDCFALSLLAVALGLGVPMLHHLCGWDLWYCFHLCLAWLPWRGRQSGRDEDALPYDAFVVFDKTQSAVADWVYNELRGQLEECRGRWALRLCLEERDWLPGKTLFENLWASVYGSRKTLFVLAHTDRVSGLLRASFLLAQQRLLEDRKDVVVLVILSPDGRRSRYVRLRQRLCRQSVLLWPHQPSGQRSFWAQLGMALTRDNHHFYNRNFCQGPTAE
Kind of assay: Antagonist activity at TLR9 in human Whole blood cell assessed as reduction in IFN-alpha level measured after 30 mins. The assay is classed as tissue-based.

A further assay concerns the target T3, Toll-like receptor 4 (Mus musculus, UniProt Q9QUK6).
T3 sequence (Q9QUK6 whole entry): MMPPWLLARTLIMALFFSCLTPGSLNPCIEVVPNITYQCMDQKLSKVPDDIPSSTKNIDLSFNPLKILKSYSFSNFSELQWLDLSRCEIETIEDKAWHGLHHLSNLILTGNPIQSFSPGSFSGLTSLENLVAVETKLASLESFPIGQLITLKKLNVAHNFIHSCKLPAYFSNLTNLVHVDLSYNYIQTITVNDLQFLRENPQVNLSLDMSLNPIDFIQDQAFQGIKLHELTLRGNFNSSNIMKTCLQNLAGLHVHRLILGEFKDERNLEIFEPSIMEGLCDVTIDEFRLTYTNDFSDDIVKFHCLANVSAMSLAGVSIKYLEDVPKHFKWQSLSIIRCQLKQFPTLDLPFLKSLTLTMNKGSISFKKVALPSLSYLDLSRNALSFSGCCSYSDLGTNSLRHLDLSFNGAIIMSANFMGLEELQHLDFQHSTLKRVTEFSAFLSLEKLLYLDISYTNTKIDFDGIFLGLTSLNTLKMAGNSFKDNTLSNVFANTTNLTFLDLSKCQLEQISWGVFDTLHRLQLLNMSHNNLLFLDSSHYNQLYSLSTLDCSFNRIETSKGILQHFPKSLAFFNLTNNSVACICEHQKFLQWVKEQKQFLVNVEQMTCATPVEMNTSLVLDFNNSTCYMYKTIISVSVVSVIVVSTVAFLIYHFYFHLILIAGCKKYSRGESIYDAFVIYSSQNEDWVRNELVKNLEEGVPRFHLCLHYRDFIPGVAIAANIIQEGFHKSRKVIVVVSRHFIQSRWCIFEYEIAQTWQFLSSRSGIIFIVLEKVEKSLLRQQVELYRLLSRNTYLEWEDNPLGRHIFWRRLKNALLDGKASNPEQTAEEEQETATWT
Description: Antagonist activity at TLR4 in mouse Splenocyte assessed as reduction IL-6 level measured after 20 hrs by Spectramax M5 method. Format: cell-based.

In assay [1] the target is Toll-like receptor 7 (Mus musculus) (UniProt P58681). Description: In vivo antagonist activity against TLR7 in mouse assessed as suppression of IFN alpha level at 1 mg/kg, po measured at 3 hrs by LC-MS/MS analysis.

The IC50 is the concentration needed to halve the response being measured. Consider `Cc1cc(N2CCc3c(c(C)nn3CC34CCC(NC(=O)[C@@H]5COCCN5)(CC3)CC4)C2)c2cnn(C)c2n1` [MHV-370], for which the IC50 on Toll-like receptor 7 is 7 nM; at Toll-like receptor 9, 1200 nM; on Toll-like receptor 4, above 10000 nM. Besides, the Activity in assay [1] came to 25 ng/mL.

The values above are taken from ChEMBL document CHEMBL5360657, “Discovery of the TLR7/8 Antagonist MHV370 for Treatment of Systemic Autoimmune Diseases” (ACS Med Chem Lett, 2023).
